Like-named read-outs stand apart in the source and are kept apart here.
Key:
[1] = tested on: CIGR1 gene and CIGR2 gene; experiment: Effect of inhibitors on induction of CIGR1 and CIGR2 genes by chitin heptamer in cultured rice cells; assay type: cell-based; conditions: inhibitor added ten minutes before; okadaic acid 1 μM, lavendustin A 30 μM, K-252a 20 μM
Procedure: (§1) FIG. 11 depicts photographs representing the effects of protein kinase inhibitors on elicitor response and gibberellin response. The following compounds were added ten minutes before the treatment with chitin heptamer (GN7) or gibberellin (GA3). (A): the positive control of the elicitor response; (B): okadaic acid (1 μM); (C), lavendustin A (30 μM); (D), K-252a (20 μM).
(§2) In addition, the effects of various inhibitors on the inductions by gibberellin and elicitors of CIGR1 gene and CIGR2 gene in the cultured rice cells were examined. Referring to the results of Kuo et al., cells pretreated with okadaic acid were tested. […] From these observations, protein phosphatase was presumed to be involved in signal transduction from gibberellin to CIGR1 gene and CIGR2 gene in cultured rice cells. Following these experiments, the effects of protein kinase inhibitors were studied.

[2] = tested on: CIGR1 gene and CIGR2 gene; experiment: Effect of inhibitors on induction of CIGR1 and CIGR2 genes by GA3 in cultured rice cells; assay type: cell-based; conditions: inhibitor added ten minutes before; okadaic acid 1 μM, lavendustin A 30 μM, K-252a 20 μM
Procedure: as §1, §2

[3] = tested on: α-amylase; conditions: aleurone layer of wheat, cited from earlier work
[4] = tested on: elicitor-responsive genes; conditions: pretreatment with K-252a; suspension-cultured rice cells; cited from earlier work
[5] = tested on: CIGR1 gene and CIGR2 gene; experiment: Gibberellin responsiveness of CIGR1 and CIGR2 genes in suspension-cultured rice cells, Northern blot hybridization; assay type: cell-based, rice (Oryza sativa cv. Nipponbare); conditions: for induction of CIGR1 and CIGR2 gene expression by gibberellin species: ten-minute treatment of cultured rice cells
Procedure: (§3) (1) Cultured rice cells: The cultured cells of rice were induced from germinating rice seeds (Oryza sativa cv. Nipponbare) on a N6 agar plate containing 1 ppm 2,4-D (auxin; 2,4-dichlorophenoxyacetic acid). The cells were successively cultured in liquid N6 medium as follows. Once a week, cells of about 1 ml in volume were transferred to 150 ml N6 medium. Every two weeks, sizes of the clusters of cells were reduced by passing through a 20-mesh metallic mesh. Unfiltered cells that were cultured while shaking for four to six days after transferring to a 30-ml medium, were used for Northern blotting's RNA extraction.
(§4) (2) RNA extraction: The extraction of total RNA from cultured cells and green leaves of rice was carried out following the phenol-SDS method. A Polytron homogenizer was used to homogenize tissue in the presence of phenol (about 90% saturated with water) of about tenfold or more volume to the tissue volume, and the same volume of extraction buffer solution (50 mM Tris-HCl pH 9.0, 1% SDS, 50 mM NaCl). The aqueous phase obtained by centrifugation was repeatedly extracted with phenol. The total nucleic acid was precipitated by adding 0.6 volume of isopropanol to the extract and then stirring the mixture. After dissolving the precipitate in water, 0.25 volume of 10 M LiCl was added, and the mixture was cooled on ice. High molecular weight RNA was collected by centrifugation, washed with 70% ethanol, and then dissolved in a small volume of water to be used as an RNA sample.
(3) A method for gibberellin treatment of cultured cells and green leaves: The cultured cells were pre-washed with 2,4-D-free N6 medium several times, and then suspended in the same medium and shaken for two hours at 25° C. Gibberellin (GA3 dissolved in ethanol) was added to make the respective final concentrations and the cells were cultured while shaking for a predetermined time and used for RNA extraction. Nipponbare plants, grown three weeks after seeding, were sprayed with gibberellin. The third and fourth leaves were collected at certain intervals and total RNA was extracted. Elicitor treatment was carried out by directly adding aqueous elicitor solutions to cultured cells of rice.
(4) Hybridization: RNA for the Northern hybridization was denatured by the glyoxal method. 2.7 μl of glyoxal (final concentration, 1 M), 1.6 μl of sodium phosphate (pH 7.0, final concentration, 10 mM), and 8 μl of dimethylsulfoxide (final concentration, 50%) were added to 10 μg of total RNA (3.7 μl). The mixture was kept at 50° C. for one hour and then subjected to electrophoresis in 1.4% agarose (10 mM sodium phosphate, pH 7.0). After electrophoresis, RNA was blotted onto a nylon membrane (Biodyne A) and RNA was fixed onto the membrane by treatment at 80° C. for two hours. Hybridization was carried out in a mixture of 50% formamide, 0.1% SDS, 0.1 mg/ml salmon sperm DNA, 5×SSPE (0.9 M NaCl, 50 mM sodium phosphate, 5 mM EDTA, pH 7.4), and 5× Denhardt's solution (0.1% bovine serum albumin, 0.1% Ficoll, 0.1% polyvinylpyrrolidone) at 42° C. for one day. The membrane was then washed with 0.1×SSC (15 mM NaCl, 1.5 mM sodium citrate) three times for five minutes each at room temperature and twice for 30 minutes each at 65° C. and then exposed on X-ray film.
Therefore, the present inventors examined the gibberellin responsiveness of CIGR1 and CIGR2 genes. Suspension-cultured cells were treated with GA3, which is one of the active-type gibberellins, and changes in the expression of these two genes were analyzed over time. […] To maintain cell division activity, the medium used for culturing plant cells contained 2,4-D, which is one of auxins that are not easily metabolized by plants. It was thought that 2,4-D might suppress the action of gibberellin. Therefore, the cells were pre-washed with 2,4-D-free medium, and after two hours of pre-culture in the same medium, the cells were treated with GA3. […]

[6] = tested on: nine plant bioassays; conditions: cited from earlier work
[7] = tested on: PR1, PR10 and OsDRF1 genes; experiment: Induction of PR1, PR10 and OsDRF1 genes after DEX treatment of transformed rice, oligoarray and Northern; assay type: in vivo, rice (Nipponbare); conditions: transformed line #7; DEX 30 μM spray
Procedure: FIG. 12 depicts photographs representing the occurrence of expression induction of PR1, PR10 and OsDRF1 genes on induction of CIGR2 gene expression by DEX using a DEX-inducing type promoter. Transformed rice plants #7 and #9 were spray-treated with DEX or ethanol (EtOH; 0.1% v/v). The amounts of mRNA for each gene were measured using northern blot hybridization after zero, 24, 48 and 72 hours.
Using Agrobacterium methods, the plasmid was introduced into rice (Nipponbare). The derived transformed rice was inbred, and second generation seeds were obtained. Each independent line was spray-treated with dexamethasone (DEX; 30 μM, ethanol solution). Over a time course, total RNAs were extracted by phenol methods from the above ground part of the plant. Northern hybridization was carried out using the cDNA of ^32P-labeled CIGR2 as a probe. […] This line was analyzed using a 60mer oligoarray (Agilent) constructed from a total-length rice cDNA library. As a result, induction of three genes (PR1(AK107926), PR10, and OsDRF1 (Defense Response Gene Family 1; AK100816)) was discovered 48-72 hours after dexamethasone treatment. PR1 and PR10 are known to be involved in disease resistance. […]

[8] = tested on: CIGR1 gene and CIGR2 gene; experiment: Expression of CIGR1 and CIGR2 genes in green leaves of rice after GA3 spraying; assay type: in vivo, rice (Nipponbare); conditions: GA3 50 μM sprayed; third and fourth leaves, three weeks after seeding
Procedure: FIG. 10 depicts photographs representing the expression of CIGR1 gene and CIGR2 gene in green leaves of rice after GA3 treatment. After spraying rice plants with GA3, the third and fourth leaves were sampled at certain intervals. Total RNA extracted from the third and fourth leaves was analyzed by the Northern blot hybridization method.
as §4, with “sample. […]” for “sample.”
Cultured plant cells are thought to be in an undifferentiated state in the presence of auxins. […] Thus, the responses of these two genes to gibberellin were analyzed in green leaves of rice. […]

[9] = tested on: CHRC; conditions: cited from earlier work
[10] = tested on: CIGR1 gene and CIGR2 gene; experiment: Elicitor responsiveness of CIGR1 and CIGR2 genes in cultured rice cells, Northern blot hybridization; assay type: cell-based, rice (Oryza sativa cv. Nipponbare)
Procedure: as §3, §4
(3) A method for gibberellin treatment of cultured cells and green leaves: The cultured cells were pre-washed with 2,4-D-free N6 medium several times, and then suspended in the same medium and shaken for two hours at 25° C. […]
Both CIGR1 gene and CIGR2 gene were identified as elicitor responsive genes using DNA microarray analysis. The elicitor responsiveness of these two genes was analyzed using Northern blot hybridization method. […]

[11] = tested on: rice; conditions: reported; cited from earlier work
[12] = ten-minute GA3 treatment, 2,4-D-free medium

SMILES	inhibition of induction of both genes by chitin heptamer [1]	inhibition of induction of both genes by GA3 [2]	induction of CIGR1 and CIGR2 gene expression by gibberellin species [5]	physiological activity type of gibberellin [6]	other results
COC(=O)[C@@]1(O)C[C@H]2O[C@]1(C)n1c3ccccc3c3c4c(c5c6ccccc6n2c5c31)C(=O)NC4 [K-252-A]	almost completely	almost completely	–	–	inhibition of gibberellin induction of α-amylase ([3]; listed as K252a): hardly inhibited; inhibition of induction of expression of elicitor-responsive genes [4]: strongly inhibited
C=C1C[C@]23C[C@@]1(O)CC[C@H]2[C@]1(C(=O)O)CCC[C@@](C)(C(=O)O)[C@H]1[C@@H]3C(=O)O [GA17]	–	–	only active type gibberellins induced the expression	inactive type	–
C[C@@H]1C[C@H]2[C@@H]3CCC4=CC(=O)C=C[C@]4(C)[C@@]3(F)[C@@H](O)C[C@]2(C)[C@@]1(O)C(=O)CO [dexamethasone]	–	–	–	–	time after dexamethasone treatment at which induction of PR1, PR10 and OsDRF1 was discovered [7]: 48 to 72 h
O=C(O)c1cc(N(Cc2ccccc2O)Cc2cc(O)ccc2O)ccc1O [Lavendustin A]	hardly inhibited	almost completely	–	–	–
C=C1C[C@]23C[C@@]1(O)CC[C@H]2[C@@]12CC[C@H](O)[C@@](C)(C(=O)O1)[C@H]2[C@@H]3C(=O)O [GA1]	–	–	induced the expression of both genes	active type	–
C=C1C[C@]23C[C@@]1(O)CC[C@H]2[C@@]12C=C[C@H](O)[C@@](C)(C(=O)O1)[C@H]2[C@@H]3C(=O)O [GA3]	–	–	induced the expression of both genes	active type	expression after GA3 treatment ([5]; cells pre-washed and pre-cultured two hours in 2,4-D-free medium): Transient expression with a maximum at ten minutes after treatment; change in the amount of expression after GA3 treatment ([5]; medium containing 2,4-D, up to three hours after treatment, both genes): no significant change; GA3 concentration at which induction of expression of both genes began to appear [5, 12]: 10^−6 M; GA3 concentration at which induction reached near saturation [5, 12]: ~10^−4 M; expression of both genes in green leaves after GA3 spraying [8]: very rapid transient expression with a maximum at 30 minutes after spraying; GA3 concentration required for induction of CHRC by gibberellin ([9]; chromoplasts of cucumber petals): at least 10^−7 M; GA3 concentration up to which CHRC expression level increased approximately linearly ([9]; cucumber petals): up to 10^−4 M
C=C1C[C@]23C[C@H]1CC[C@H]2[C@@]12CC[C@H](O)[C@@](C)(C(=O)O1)[C@H]2[C@@H]3C(=O)O [GA4]	–	–	induced the expression of both genes	active type	–
C=C1C[C@]23C[C@H]1CC[C@H]2[C@]1(C(=O)O)CC[C@H](O)[C@@](C)(C(=O)O)[C@H]1[C@@H]3C(=O)O [GA13]	–	–	only active type gibberellins induced the expression	inactive type	–
CC(=O)N[C@H]1[C@H](O[C@@H]([C@H](O)[C@H](C=O)NC(C)=O)[C@H](O)CO)O[C@H](CO)[C@@H](O[C@@H]2O[C@H](CO)[C@@H](O[C@@H]3O[C@H](CO)[C@@H](O[C@@H]4O[C@H](CO)[C@@H](O[C@@H]5O[C@H](CO)[C@@H](O[C@@H]6O[C@H](CO)[C@@H](O)[C@H](O)[C@H]6NC(C)=O)[C@H](O)[C@H]5NC(C)=O)[C@H](O)[C@H]4NC(C)=O)[C@H](O)[C@H]3NC(C)=O)[C@H](O)[C@H]2NC(C)=O)[C@@H]1O [chitin heptamer, N-acetylchitoheptaose]	–	–	–	–	response (induction of expression) of both genes to chitin oligomers (monomer to heptamer) and chitosan oligomers (tetramer, heptamer) [10]: strongest response; time for which expression continued to increase after chitin heptamer treatment ([10]; both genes): up to 90 minutes; mRNA amount of CIGR1 and CIGR2 genes after treatment with chitin heptamer ([10]; five minutes after treatment, both genes): Significant increases of mRNA amount; elicitor activity in rice depending on oligomer size [11]: strongest effects
C=C1[C@@H](O)[C@@H]2O[C@]3(CC[C@H](/C=C/[C@@H](C)[C@@H]4CC(C)=C[C@@]5(O[C@H](C[C@@](C)(O)C(=O)O)CC[C@H]5O)O4)O3)CC[C@H]2O[C@@H]1[C@@H](O)C[C@H](C)[C@H]1O[C@@]2(CCCCO2)CC[C@H]1C [okadaic acid]	hardly inhibited	inhibited almost completely	–	–	inhibition of gibberellin induction of α-amylase [3]: specifically inhibited
